# Assay results: patent US20240360133A1, “FUSED TRICYCLIC COMPOUND, PREPARATION METHOD THEREFOR AND APPLICATION THEREOF IN MEDICINE” (Jiangsu Hengrui Pharmaceuticals Co., Ltd., priority 2020, published 2024)
# Columns and labels:
# human TLR7 = molecular target: T1, human TLR7 (Homo sapiens, UniProt Q9NYK1); assay: Inhibitory effect on human TLR7 activation pathway (HEK-Blue hTLR7 SEAP reporter); format: cell-based; conditions: HEK-Blue hTLR7 cells, 1 μM resiquimod, 20 h, SEAP OD620
# T1 construct: host or cells: HEK-Blue hTLR7 (HEK293)
# T1 sequence (Q9NYK1 27-1049): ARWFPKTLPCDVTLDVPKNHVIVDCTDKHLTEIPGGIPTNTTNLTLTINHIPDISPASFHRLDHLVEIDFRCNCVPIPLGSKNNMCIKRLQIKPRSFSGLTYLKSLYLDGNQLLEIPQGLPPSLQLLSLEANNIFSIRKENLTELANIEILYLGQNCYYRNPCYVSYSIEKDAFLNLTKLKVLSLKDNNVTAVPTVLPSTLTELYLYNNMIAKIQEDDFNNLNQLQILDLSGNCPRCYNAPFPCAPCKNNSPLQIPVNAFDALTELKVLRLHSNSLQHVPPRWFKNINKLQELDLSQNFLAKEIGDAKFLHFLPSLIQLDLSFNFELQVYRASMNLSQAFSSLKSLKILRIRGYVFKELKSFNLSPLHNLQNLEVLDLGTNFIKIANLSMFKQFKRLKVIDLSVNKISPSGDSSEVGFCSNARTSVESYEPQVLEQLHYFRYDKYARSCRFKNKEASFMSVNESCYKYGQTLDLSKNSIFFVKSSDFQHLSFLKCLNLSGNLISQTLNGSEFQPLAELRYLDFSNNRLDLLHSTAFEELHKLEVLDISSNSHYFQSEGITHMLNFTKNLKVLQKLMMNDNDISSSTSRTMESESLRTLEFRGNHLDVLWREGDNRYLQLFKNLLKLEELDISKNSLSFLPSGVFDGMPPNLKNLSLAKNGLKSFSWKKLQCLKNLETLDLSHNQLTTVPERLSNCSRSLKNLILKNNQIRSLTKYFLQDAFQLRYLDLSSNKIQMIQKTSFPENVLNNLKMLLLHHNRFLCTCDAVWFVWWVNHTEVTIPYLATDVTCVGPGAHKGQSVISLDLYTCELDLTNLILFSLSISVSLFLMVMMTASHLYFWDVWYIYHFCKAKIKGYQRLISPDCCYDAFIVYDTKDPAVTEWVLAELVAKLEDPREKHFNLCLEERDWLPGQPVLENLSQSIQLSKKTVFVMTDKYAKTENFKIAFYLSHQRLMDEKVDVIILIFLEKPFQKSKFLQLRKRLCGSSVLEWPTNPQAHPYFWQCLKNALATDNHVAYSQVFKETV
# Procedure: (§1) • 1. HEK-Blue™ hTLR7 cell (Invivogen) • 2. Resiquimod (R848, Invivogen) • 3. Alkaline phosphatase detection medium (Quanti-Blue Detection, Invivogen) • 4. Blasticidin (Invivogen) • 5. Zeocin (Invivogen) • 6. Normocin (Invivogen) • 7. DMEM/HIGH Glucose (GE Healthcare) • 8. Fetal bovine serum (FBS, Gibco) • 9. Phosphate-buffered saline (Shanghai BasalMedia Technologies Co., Ltd.) • 10. Sterile purified water (made in-house by Shanghai Hengrui) • 11. 15 mL centrifuge tube (Corning) • 12. %-well formulating plate (Corning) • 13. 96-well flat-bottom cell culture plate (Corning) • 14. Constant-temperature cell incubator (Thermo scientific) • 15. Constant-temperature incubator (Shanghai Yiheng Scientific Instruments Co., Ltd.) • 16. PHERAstar FS microplate reader (BMG Labtech)
# (§2) HEK-Blue™ hTLR7 cells were purchased from Invivogen. These cells are HEK293 cells transfected with the human Toll-like receptor 7 (TLR7) gene and the secreted alkaline phosphatase reporter gene (SEAP). The alkaline phosphatase reporter gene (SEAP) is under the regulation of the IFN—P minimal promoter comprising 5 NF-kB and AP-1 binding sites. Upon activation of TLR7 with an agonist, SEAP secretion is induced via downstream NF-kB and AP-1. After addition of an antagonist compound, the pathway described above is inhibited, and SEAP secretion is reduced. The activity of the compounds for the TLR7 pathway was evaluated by measuring OD620 through the SEAP substrate.
# (§3) 20 mM test compounds dissolved in 100% DMSO were serially diluted with 100% DMSO to 2000, 400, 80, 16, 3.2, 0.64, 0.128, 0.0256 μM, with blank wells containing 100% DMSO. The compounds and 100% DMSO were then 20-fold diluted in DMEM/HIGH glucose media containing 10% inactivated FBS (complete media, the same applies below). Resiquimod was diluted to 10 μM with sterile water. The 10 μM resiquimod dilution in sterile water was added to a 96-well cell culture plate at 20 μL/well. The above compounds diluted in complete media and 100% DMSO were then added at 20 μL/well to wells containing resiquimod, 20 μL of sterile water and 20 μL of 100% DMSO diluted in the complete medium were added to negative control wells.
# (§4) HEK-Blue™ hTLR7 cells were cultured in a DMEM/HIGH glucose medium containing 10% inactivated FBS, 100 μg/mL Normocin, 10 μg/mL blasticidin, and 100 μg/mL Zeocin. Cells that were in a good state of growth and had grown to 70%-80% were collected. The growth medium was discarded, 5-10 mL of PBS pre-heated at 37° C. was added to wash the cells once, and 2-5 mL of pre-heated PBS was added. The cells were cultured at 37° C. for 1-2 min, dispersed by pipetting, transferred to a 15 mL centrifuge tube, and counted, and the cell density was adjusted to 4.8-10′/mL with the complete medium. After density adjustment, 160 μL of the resulting cell suspension was added to the above 96-well cell culture plate to a final number of cells per well of 76,500/well. The final concentration of resiquimod was 1 μM, and the final concentrations of the test compounds were 10,000, 2000, 400, 80, 16, 3.2, 0.64, and 0.128 nM. The cells were cultured in a 37° C., 5% CO2 incubator for 20 h. Then 20 μL of the supernatant was added to 180 μL of the prepared alkaline phosphatase detection medium and incubated in the dark in a constant-temperature incubator at 37° C. for 120 min. Then the OD620 absorbance readings were taken on a microplate reader. The inhibition rate was calculated using the following formula: […]
# Inhibition curves were plotted using Graphpad Prism software according to the concentrations of the compounds and the corresponding inhibition rates, and the concentrations of the compounds at which the inhibition rate reached 50%, i.e., IC50 values, were calculated and are shown in Table 1.
# human TLR8 = molecular target: T2, human TLR8 (Homo sapiens, UniProt Q9NR97); assay: Inhibitory effect on human TLR8 pathway (HEK-Blue hTLR8 SEAP reporter); format: cell-based; conditions: HEK-Blue hTLR8 cells, 6 μM resiquimod, 20 h, SEAP OD620
# T2 construct: host or cells: HEK-Blue hTLR8 (HEK293)
# T2 sequence (Q9NR97 27-1041): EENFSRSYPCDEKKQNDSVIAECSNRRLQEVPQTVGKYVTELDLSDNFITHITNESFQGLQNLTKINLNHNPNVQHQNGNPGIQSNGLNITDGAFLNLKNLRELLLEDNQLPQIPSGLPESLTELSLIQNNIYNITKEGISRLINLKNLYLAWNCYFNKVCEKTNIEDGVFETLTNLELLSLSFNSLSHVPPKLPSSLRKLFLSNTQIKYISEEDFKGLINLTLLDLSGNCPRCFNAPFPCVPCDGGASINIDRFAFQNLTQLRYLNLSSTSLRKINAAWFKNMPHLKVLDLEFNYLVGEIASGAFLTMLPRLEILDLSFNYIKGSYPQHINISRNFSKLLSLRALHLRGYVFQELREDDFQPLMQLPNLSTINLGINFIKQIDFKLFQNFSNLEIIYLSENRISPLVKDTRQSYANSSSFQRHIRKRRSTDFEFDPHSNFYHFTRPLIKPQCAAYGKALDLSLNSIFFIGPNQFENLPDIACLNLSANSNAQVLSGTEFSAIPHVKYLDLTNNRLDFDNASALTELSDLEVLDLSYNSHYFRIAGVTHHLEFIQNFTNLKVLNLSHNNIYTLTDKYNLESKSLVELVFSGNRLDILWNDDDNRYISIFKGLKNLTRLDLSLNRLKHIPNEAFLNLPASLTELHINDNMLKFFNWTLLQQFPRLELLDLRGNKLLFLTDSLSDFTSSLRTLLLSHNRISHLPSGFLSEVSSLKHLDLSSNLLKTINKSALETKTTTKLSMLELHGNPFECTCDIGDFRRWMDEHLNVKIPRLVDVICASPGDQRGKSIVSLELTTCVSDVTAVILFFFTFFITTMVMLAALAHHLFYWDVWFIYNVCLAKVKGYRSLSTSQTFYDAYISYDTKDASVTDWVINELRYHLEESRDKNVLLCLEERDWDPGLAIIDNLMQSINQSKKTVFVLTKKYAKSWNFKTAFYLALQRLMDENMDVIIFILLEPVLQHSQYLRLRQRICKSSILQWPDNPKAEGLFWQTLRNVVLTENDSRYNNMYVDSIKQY
# Procedure: as §1, with “hTLR8” for “hTLR7”, “96-well” for “%-well”
# as §2, with “hTLR8” for “hTLR7”, “8 (TLR8)” for “7 (TLR7)”, “TLR8” for “TLR7”
# as §3, with “to 60” for “to 10”, “The 60” for “The 10”
# as §4, with “HEK-Blue™ hTLR8” for “HEK-Blue™ hTLR7”, “to 70%-8%” for “to 70%-80%”, “to 4.8×10^5/mL” for “to 4.8-10′/mL”, “was 6” for “was 1”, “min. The” for “min. Then the”
# Inhibition curves were plotted using Graphpad Prism software according to the concentrations of the compounds and the corresponding inhibition rates, and the concentrations of the compounds at which the inhibition rate reached 50%, i.e., IC50 values, were calculated and are shown in Table 2.
Structure (SMILES),IC50 (human TLR7),IC50 (human TLR8)
"Cc1cc(-c2[nH]c3cc4c(nc3c2C(C)C)CC(NC2CCOC2)CC4)cc(C)n1 (centres unmarked) [Example 3, 2-(2,6-Dimethylpyridin-4-yl)-3-isopropyl-N-(tetrahydrofuran-3-yl)-5,6,7,8-tetrahydro-1H-pyrrolo[3,2-b]quinolin-6-amine]",14.9 nM,–
"Cc1cc(-c2[nH]c3cc4c(nc3c2C2CCOCC2)CNCC4)cc(C)n1 [Example 6, 2-(2,6-Dimethylpyridin-4-yl)-3-(tetrahydro-2H-pyran-4-yl)-5,6,7,8-tetrahydro-1H-pyrrolo[3,2-b][1,7]naphthyridine]",–,10.5 nM
